The test system of this experiment is fibula fracture region of streptozotocin-induced diabetic rats. The experiment in a line: Acceleration of fracture healing in diabetic rat (Experimental Example 7). Type of experiment: in vivo. Conditions: Example 7-(1) microspheres; for Bone mineral content: 6 weeks after sutura, DXA at fracture region; for Breaking Energy / Breaking force: 6 weeks, three-point bending test. As for the experimental part:
CD (SD) IGS rats (Charles River Japan, Inc.; male; 7-week-old) were housed for seven days at room temperature (23±2° C.) and 55±15% humidity. During the housing period, the rats were free to access commercially available food (from Oriental Bio Service; CRF-1).
Streptozotocin (Sigma), which induce diabetes, was dissolved in citrate-buffered saline (pH 4.5) to obtain 0.05 M streptozocin solution and injected intravenously to each rat at 60 mg/kg. One week later, blood was collected from tail end and blood-glucose level was determined with a blood-glucose monitor (Molecular Devices; M-SPmax250). Based on the measurements, rats were divided into groups so that a significant difference in glucose level may not occur among groups. The average blood-glucose level was from 426.12 to 428.23 mg/dl.
Under ether anesthesia, the left-lower legs of rats were shaved and sterilized with 70% aqueous ethanol, fibulas were exposed with scissors and cut with nail scissors (Natsume Seisakusyo; B17). The cut sections of the fibula were re-matched with tweezers. For the test groups (12 rats/group), the drug-containing microspheres prepared in Example 7-(1), which contains 0.03 or 0.1 mg of Compound (2), were placed around the cutting site using spatula followed by suturing with silk thread. For the control group (12 rats/group), the same amount of drug-free microspheres prepared in Control Example 2 were placed around the cutting site using spatula followed by suturing with silk thread. Following the suturing, every animal was sterilized with 70% aqueous ethanol. After six weeks from the sutura, under ether anesthesia, rats were sacrificed by laparotomy with bleeding, and the fibulas were excised.
Eight fibulas were randomly selected from those excised at 6 weeks after sutura and subjected to DXA bone densitometer (from Aloka; DCS-600) to determine bone mineral density and bone mineral content at fracture region, (scanning width: 1 mm).
The fibula used in the determination of mineral content was subjected to a three-point bending test with bone strength tester (from Muromachi Kikai Co., Ltd.; TK-252C) to determine bone strength. Briefly, the fibula was supported by two supports apart from each other by 8 mm and the cut section was positioned at the middle of these supports, i.e., 4 mm apart from the respective two supports. Loading (3 mm/minute) from upper direction was kept on the middle point (fracture section) of fibula until fibula begins to fracture. The maximum pressure necessary to break the bone was defined as the breaking force. The total energy spent to break the bone was defined as the breaking energy.
Four fibulas excised at 6 weeks after sutura was photographed with micro focus magnification radiography system (Fuji Photo Film Co. Ltd.; μFX-1000; tube voltage: 25 kV; tube current: […]; 20 seconds).

For the compound `CCOc1cc2cc(CO)c(CO)c(-c3ccnc(-n4nc(-c5cccnc5)c5ccccc5c4=O)c3)c2cc1OCC` [Compound (2)], under “drug content 0.03 mg”, the Bone mineral content is 13.69 ± 0.96 mg, the “Breaking Energy” value amounted to 1.53 ± 0.39 mJ and the “Breaking force” value is recorded as 8.13 ± 1.20 N. For the setting “drug content 0.1 mg”, the Bone mineral content is 14.60 ± 0.69 mg, the “Breaking Energy” value is reported as 2.91 ± 0.82 mJ and the “Breaking force” value is recorded as 11.75 ± 2.14 N.

(Values after patent US7659273B2, “Composition for accelerating bone fracture healing” (Mitsubishi Tanabe Pharma Corporation, priority 2001, dated 2010).)
